Test system: MC-38 tumors
Assay: Anti-tumor efficacy of Compound 1 in the subcutaneous MC-38 model: schedule comparison (Example 3)
Format: in vivo, Mus musculus
Protocol: Female C57BL/6 mice were inoculated subcutaneously at right flank with MC-38 cells for tumor development. Six days after tumor inoculation, 64 mice with tumor size ranging from 50-100 mm^3 (average tumor size 71 mm^3) were selected and assigned into 8 groups using stratified randomization with 8 mice per group based upon their tumor volumes. The treatments were started from the day of randomization (defined as D0), Group 1 was treated with Vehicle (Tween 80:Ethanol:Saline—5:5:90 v/v/v), S.C. QD*20 days, Group 2 was treated with Compound 1 at 1 mpk S.C. QD*28 days, Group 3 was treated with Compound 1 at 0.5 mpk S.C. QD*28 days, Group 4 was treated with Compound 1 at 1.4 mpk S.C. 5-days ON 2-days OFF×4 cycles, Group 5 was treated with Compound 1 at 0.7 mpk S.C. 5-days ON 2-days OFF×4 cycles, Group 6 was treated with Compound 1 at 3 mpk qd×5, followed by 1 mpk qd×23, S.C. QD, Group 7 was treated with Compound 1 at 1.5 mpk qd×5, followed by 0.5 mpk qd×23, S.C. QD and Group 8 was treated with Compound 1 at 1.4 mpk 10-days ON 4-days OFF×2 cycles, S.C.
Species: Mus musculus; Strain: C57BL/6; Age: 6-8 weeks; Sex: female; Body weight (at treatment start): 16-20 g.
The MC-38 tumor cells were maintained in vitro as a monolayer culture in DMEM medium supplemented with 10% heat inactivated fetal bovine serum and 100 μg/mL penicillin streptomycin at 37° C. in an atmosphere of 5% CO2 in air. The tumor cells were routinely subcultured twice weekly by trypsin-EDTA treatment. The cells growing to a confluency around 70%-80% were harvested and counted for tumor inoculation. The cultured MC-38 were harvested, re-suspended in base medium at a density of 1×10^7 cells/mL with viability>90%. Each mouse was inoculated subcutaneously at the right flank with 1×10^6 cells in 0.1 ml base medium for tumor development.
The treatments were started on day 6 after tumor inoculation when the tumor size reached 50-100 mm^3 (average tumor size 71 mm^3). Each group consisted of 8 tumor-bearing mice. The testing article was administrated to the mice at a dosing volume of 10 mL/Kg according to the predetermined regimen as shown in Table 3-1.
Tumor sizes were measured three times a week in two dimensions using a caliper, and the volume expressed in mm^3 using the formula: V=0.5 a×b^2 where a and b are the long and short diameters of the tumor, respectively. The tumor sizes were then used for the calculations of both tumor growth inhibition (TGI) and T/C values.
TGI is calculated for each group using the formula: […]
TVTreatment_DayN is the average tumor volume of a treatment group on a given day, TVTreatment_Day0 is the average tumor volume of the treatment group on the first day of treatment, TVVehicle_DayN is the average tumor volume of the vehicle control group on a given day, and TVVehicle_Day0 is the average tumor volume of the vehicle group on the first day of treatment.
The T/C value (in percent) is an indication of antitumor effectiveness, T/C (%)=RTVTreatment/RTVControl×100% (RTVTreatment: the mean RTV of the treatment group; RTVControl: the mean RTV of the vehicle treated group). RTV (relative tumor volume)=TVDayN/TVDay0. TVDayN and TVDay0 is the tumor volume on day N and Day 0 respectively. T/C (%)≤42% is considered as significant antitumor activity and <10% is considered as highly significant antitumor activity by the National Cancer Institute criteria.
Relative change of body weight (RCBW) of each mouse was calculated according to the following formula: […]
Animal survival curve: When an individual animal reached to the termination endpoint (TV>2000 mm^3), the mouse was euthanized. The time from treatment initiation to the termination was deemed as its survival time. Survival curve was plotted by Kaplan-Meier method. Median survival time (MST) was calculated for each group. Increase of life span (ILS) was calculated according to the following formula: […]
ILS (%)>25% is considered as a biologically significant survival benefit. […]

With `CC(=O)N[C@@H](Cc1c[nH]c2ccccc12)C(=O)N[C@@H](CCC(=O)C=[N+]=[N-])C(=O)OC(C)C` [Compound 1, Isopropyl (S)-2-((S)-2-acetamido-3-(1H-indol-3-yl)propanamido)-6-diazo-5-oxohexanoate] the “Tumor volume (Mean ± SEM)” value (Day 20, Group 3: 0.5 mg/kg qdx28, sc) was 7 ± 1 mm^3, the “Tumor volume (Mean ± SEM)” value (Day 20, Group 4: 1.4 mg/kg 5-days ON 2-days OFF x 4 cycles, sc) was 0 ± 0 mm^3 and the “Tumor volume (Mean ± SEM)” value (Day 20, Group 5: 0.7 mg/kg 5-days ON 2-days OFF x 4 cycles, sc) was 2 ± 1 mm^3. For the same compound, the “Tumor volume (Mean ± SEM)” value (Day 20, Group 6: 3 mpk qdx5 followed by 1 mpk qdx23, sc) was 5 ± 2 mm^3, the “Tumor volume (Mean ± SEM)” value (Day 20, Group 7: 1.5 mpk qdx5 followed by 0.5 mpk qdx23, sc) was 5 ± 1 mm^3 and the “Tumor volume (Mean ± SEM)” value (Day 20, Group 8: 1.4 mg/kg 10-days ON 4-days OFF x 2 cycles, sc) was 6 ± 2 mm^3. For the same compound, the “Tumor volume (Mean ± SEM)” value (Day 22, Group 2: 1 mg/kg qdx28, sc) was 2 ± 1 mm^3, the “Tumor volume (Mean ± SEM)” value (Day 22, Group 3: 0.5 mg/kg qdx28, sc) was 6 ± 2 mm^3 and the “Tumor volume (Mean ± SEM)” value (Day 22, Group 4: 1.4 mg/kg 5-days ON 2-days OFF x 4 cycles, sc) was 0 ± 0 mm^3. For the same compound, the “Tumor volume (Mean ± SEM)” value (Day 22, Group 5: 0.7 mg/kg 5-days ON 2-days OFF x 4 cycles, sc) was 2 ± 1 mm^3, the “Tumor volume (Mean ± SEM)” value (Day 22, Group 6: 3 mpk qdx5 followed by 1 mpk qdx23, sc) was 3 ± 1 mm^3 and the “Tumor volume (Mean ± SEM)” value (Day 22, Group 7: 1.5 mpk qdx5 followed by 0.5 mpk qdx23, sc) was 6 ± 1 mm^3. The “Tumor volume (Mean ± SEM)” value (Day 22, Group 8: 1.4 mg/kg 10-days ON 4-days OFF x 2 cycles, sc) was 5 ± 2 mm^3, the “Tumor volume (Mean ± SEM)” value (Day 25, Group 2: 1 mg/kg qdx28, sc) was 5 ± 1 mm^3 and the “Tumor volume (Mean ± SEM)” value (Day 25, Group 3: 0.5 mg/kg qdx28, sc) was 6 ± 1 mm^3. For the same compound, the “Tumor volume (Mean ± SEM)” value (Day 25, Group 4: 1.4 mg/kg 5-days ON 2-days OFF x 4 cycles, sc) was 0 ± 0 mm^3, the “Tumor volume (Mean ± SEM)” value (Day 25, Group 5: 0.7 mg/kg 5-days ON 2-days OFF x 4 cycles, sc) was 2 ± 1 mm^3 and the “Tumor volume (Mean ± SEM)” value (Day 25, Group 6: 3 mpk qdx5 followed by 1 mpk qdx23, sc) was 2 ± 1 mm^3. For the same compound, the “Tumor volume (Mean ± SEM)” value (Day 25, Group 7: 1.5 mpk qdx5 followed by 0.5 mpk qdx23, sc) was 4 ± 1 mm^3, the “Tumor volume (Mean ± SEM)” value (Day 25, Group 8: 1.4 mg/kg 10-days ON 4-days OFF x 2 cycles, sc) was 5 ± 2 mm^3 and the “Tumor volume (Mean ± SEM)” value (Day 27, Group 2: 1 mg/kg qdx28, sc) was 6 ± 2 mm^3. For the same compound, the “Tumor volume (Mean ± SEM)” value (Day 27, Group 3: 0.5 mg/kg qdx28, sc) was 7 ± 1 mm^3, the “Tumor volume (Mean ± SEM)” value (Day 27, Group 4: 1.4 mg/kg 5-days ON 2-days OFF x 4 cycles, sc) was 0 ± 0 mm^3 and the “Tumor volume (Mean ± SEM)” value (Day 27, Group 5: 0.7 mg/kg 5-days ON 2-days OFF x 4 cycles, sc) was 1 ± 1 mm^3. The “Tumor volume (Mean ± SEM)” value (Day 27, Group 6: 3 mpk qdx5 followed by 1 mpk qdx23, sc) was 2 ± 1 mm^3, the “Tumor volume (Mean ± SEM)” value (Day 27, Group 7: 1.5 mpk qdx5 followed by 0.5 mpk qdx23, sc) was 4 ± 1 mm^3 and the “Tumor volume (Mean ± SEM)” value (Day 27, Group 8: 1.4 mg/kg 10-days ON 4-days OFF x 2 cycles, sc) was 6 ± 2 mm^3. The “Tumor volume (Mean ± SEM)” value (Day 29, Group 2: 1 mg/kg qdx28, sc) was 17 ± 11 mm^3, the “Tumor volume (Mean ± SEM)” value (Day 29, Group 3: 0.5 mg/kg qdx28, sc) was 13 ± 3 mm^3 and the “Tumor volume (Mean ± SEM)” value (Day 29, Group 4: 1.4 mg/kg 5-days ON 2-days OFF x 4 cycles, sc) was 1 ± 1 mm^3. For the same compound, the “Tumor volume (Mean ± SEM)” value (Day 29, Group 5: 0.7 mg/kg 5-days ON 2-days OFF x 4 cycles, sc) was 2 ± 1 mm^3, the “Tumor volume (Mean ± SEM)” value (Day 29, Group 6: 3 mpk qdx5 followed by 1 mpk qdx23, sc) was 5 ± 3 mm^3 and the “Tumor volume (Mean ± SEM)” value (Day 29, Group 7: 1.5 mpk qdx5 followed by 0.5 mpk qdx23, sc) was 10 ± 3 mm^3. The “Tumor volume (Mean ± SEM)” value (Day 29, Group 8: 1.4 mg/kg 10-days ON 4-days OFF x 2 cycles, sc) was 17 ± 5 mm^3, the “Tumor volume (Mean ± SEM)” value (Day 32, Group 2: 1 mg/kg qdx28, sc) was 92 ± 47 mm^3 and the “Tumor volume (Mean ± SEM)” value (Day 32, Group 3: 0.5 mg/kg qdx28, sc) was 45 ± 9 mm^3. For the same compound, the “Tumor volume (Mean ± SEM)” value (Day 32, Group 4: 1.4 mg/kg 5-days ON 2-days OFF x 4 cycles, sc) was 13 ± 7 mm^3, the “Tumor volume (Mean ± SEM)” value (Day 32, Group 5: 0.7 mg/kg 5-days ON 2-days OFF x 4 cycles, sc) was 20 ± 12 mm^3 and the “Tumor volume (Mean ± SEM)” value (Day 32, Group 6: 3 mpk qdx5 followed by 1 mpk qdx23, sc) was 51 ± 35 mm^3. The “Tumor volume (Mean ± SEM)” value (Day 32, Group 7: 1.5 mpk qdx5 followed by 0.5 mpk qdx23, sc) was 44 ± 12 mm^3, the “Tumor volume (Mean ± SEM)” value (Day 32, Group 8: 1.4 mg/kg 10-days ON 4-days OFF x 2 cycles, sc) was 73 ± 19 mm^3 and the “Tumor volume (Mean ± SEM)” value (Day 34, Group 2: 1 mg/kg qdx28, sc) was 190 ± 81 mm^3. The “Tumor volume (Mean ± SEM)” value (Day 34, Group 3: 0.5 mg/kg qdx28, sc) was 121 ± 20 mm^3, the “Tumor volume (Mean ± SEM)” value (Day 34, Group 4: 1.4 mg/kg 5-days ON 2-days OFF x 4 cycles, sc) was 37 ± 21 mm^3 and the “Tumor volume (Mean ± SEM)” value (Day 34, Group 5: 0.7 mg/kg 5-days ON 2-days OFF x 4 cycles, sc) was 32 ± 16 mm^3. The “Tumor volume (Mean ± SEM)” value (Day 34, Group 6: 3 mpk qdx5 followed by 1 mpk qdx23, sc) was 114 ± 79 mm^3, the “Tumor volume (Mean ± SEM)” value (Day 34, Group 7: 1.5 mpk qdx5 followed by 0.5 mpk qdx23, sc) was 112 ± 24 mm^3 and the “Tumor volume (Mean ± SEM)” value (Day 34, Group 8: 1.4 mg/kg 10-days ON 4-days OFF x 2 cycles, sc) was 168 ± 43 mm^3. For the same compound, the “Tumor volume (Mean ± SEM)” value (Day 36, Group 2: 1 mg/kg qdx28, sc) was 454 ± 212 mm^3, the “Tumor volume (Mean ± SEM)” value (Day 36, Group 3: 0.5 mg/kg qdx28, sc) was 285 ± 42 mm^3 and the “Tumor volume (Mean ± SEM)” value (Day 36, Group 4: 1.4 mg/kg 5-days ON 2-days OFF x 4 cycles, sc) was 100 ± 47 mm^3. For the same compound, the “Tumor volume (Mean ± SEM)” value (Day 36, Group 5: 0.7 mg/kg 5-days ON 2-days OFF x 4 cycles, sc) was 125 ± 63 mm^3, the “Tumor volume (Mean ± SEM)” value (Day 36, Group 6: 3 mpk qdx5 followed by 1 mpk qdx23, sc) was 288 ± 174 mm^3 and the “Tumor volume (Mean ± SEM)” value (Day 36, Group 7: 1.5 mpk qdx5 followed by 0.5 mpk qdx23, sc) was 364 ± 69 mm^3. For the same compound, the “Tumor volume (Mean ± SEM)” value (Day 36, Group 8: 1.4 mg/kg 10-days ON 4-days OFF x 2 cycles, sc) was 479 ± 121 mm^3, the “Tumor volume (Mean ± SEM)” value (Day 39, Group 2: 1 mg/kg qdx28, sc) was 1109 ± 398 mm^3 and the “Tumor volume (Mean ± SEM)” value (Day 39, Group 3: 0.5 mg/kg qdx28, sc) was 592 ± 61 mm^3. For the same compound, the “Tumor volume (Mean ± SEM)” value (Day 39, Group 4: 1.4 mg/kg 5-days ON 2-days OFF x 4 cycles, sc) was 238 ± 72 mm^3, the “Tumor volume (Mean ± SEM)” value (Day 39, Group 5: 0.7 mg/kg 5-days ON 2-days OFF x 4 cycles, sc) was 242 ± 114 mm^3 and the “Tumor volume (Mean ± SEM)” value (Day 39, Group 6: 3 mpk qdx5 followed by 1 mpk qdx23, sc) was 723 ± 345 mm^3. For the same compound, the “Tumor volume (Mean ± SEM)” value (Day 39, Group 7: 1.5 mpk qdx5 followed by 0.5 mpk qdx23, sc) was 904 ± 174 mm^3, the “Tumor volume (Mean ± SEM)” value (Day 39, Group 8: 1.4 mg/kg 10-days ON 4-days OFF x 2 cycles, sc) was 945 ± 260 mm^3 and the “Tumor volume (Mean ± SEM)” value (Day 41, Group 3: 0.5 mg/kg qdx28, sc) was 1718 ± 136 mm^3. For the same compound, the “Tumor volume (Mean ± SEM)” value (Day 41, Group 4: 1.4 mg/kg 5-days ON 2-days OFF x 4 cycles, sc) was 420 ± 129 mm^3 and the “Mice completely tumor free on D67 ("cured")” value (Group 5: 0.7 mpk S.C. 5-days ON 2-days OFF×4 cycles, 8 mice per group) was “Four”.

Reference: patent publication US20220117938A1, “COMBINATON THERAPY WITH A DON PRODRUG AND AN IMMUNE CHECKPOINT INHIBITOR” (DRACEN PHARMACEUTICALS, INC., priority 2019, published 2022)
